The text below walks through data of US20250002473A1, “QUINOXALINE DERIVED SULFONAMIDES WITH EGFR DEGRADATION ACTIVITIES AND THEIR USES THEREOF” (Accutar Biotechnology Inc., priority 2023, published 2025).

Like-named read-outs stand apart in the source and are kept apart here. A value given as a limit tells only on which side of the number the result lay.

The DC50 is the concentration at which degradation of the target reaches its halfway point.

What all share (type): cell-based
In one test the target is T1, A431 (EGFR_WT) (Homo sapiens, UniProt P00533).
T1 construct: endogenous in cells; host or cells: A431, NCI-H2073, NCI-H292
Put plainly: EGFR degradation assay (western blot), A431 cells. The procedure, abridged:
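Cells seeded overnight, then exposed to compounds for 24 h; lysates run on western blot, EGFR probed with tubulin loading control and fluorescent secondary detection. DC50 = concentration giving 50% EGFR degradation.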
(A western blot detects proteins with antibodies after separation by electrophoresis.)

The next test has as its target T2, NCl-H2073 (EGFR_WT) (Homo sapiens, UniProt P00533).
T2 construct: endogenous in cells; host or cells: A431, NCI-H2073, NCI-H292
Nature of the test: EGFR degradation assay (western blot), NCl-H2073 cells. Conditions: Table 5; NCI-H2073 cells (EGFR_WT), 24 h. As to the method:
A431 (EGFR_WT), NCl-H2073 (EGFR_WT), NCl-H292 (EGFR_WT), BaF3_YVAM (Her2_A775insYVAM), BaF3_SVD (EGFR_D770insSVD), BaF3_ASV (EGFR_A776inASV), or BaF3_DTC (EGFR_Exon19del/T790M/C797S) cells were seeded in a 24-well plate at a density of 4×10^5 cells per well for EGFR WT cells and 8× cells per well for EGFR or Her2 mutant cells, and the plates were incubated overnight. The cells were treated with the desired compounds for 24 h. The culture medium was removed, and 100 μL of RIPA buffer (Beyotime, P0013B) containing 1% Protease Inhibitor Cocktail (Bimake, B14001), 1% Phosphatase Inhibitor Cocktail 2 (Sigma, P5726), and 1% Phosphatase Inhibitor Cocktail 3 (Sigma, P0044) were added to lyse the cells. Then, the cell lysates were transferred to 1.5 mL microcentrifuge tubes and centrifuged at 12,000 rpm and 4° C. for 30 min. The supernatants were transferred into new tubes, and the protein concentration was determined using the BCA protein quantification method. All samples were diluted to the same concentration using RIPA buffer, loading buffer was added, samples were denatured, and 15 μg of protein per lane was loaded onto a SurePAGE 4-20% Bis-Tris gel. Samples were separated via electrophoresis in MOPS running buffer at 180 V for 100 min. […] Fluorescence was detected using the Odyssey CLx Imaging System, and the data were analyzed with Empiria Studio Software and GraphPad Prism 9. […]

In test [1] the target is T3, BaF3_YVAM (Her2_A775insYVAM) (Homo sapiens, UniProt P04626, INS775YVMA).
T3 construct: expressed in transfected cells; host or cells: Ba/F3 (engineered)
Put plainly: EGFR degradation assay (western blot), BaF3_YVAM cells. As to the method:
(§1) A431 (EGFR_WT), NCl-H2073 (EGFR_WT), NCl-H292 (EGFR_WT), BaF3_YVAM (Her2_A775insYVAM), BaF3_SVD (EGFR_D770insSVD), BaF3_ASV (EGFR_A776inASV), or BaF3_DTC (EGFR_Exon19del/T790M/C797S) cells were seeded in a 24-well plate at a density of 4×10^5 cells per well for EGFR WT cells and 8× cells per well for EGFR or Her2 mutant cells, and the plates were incubated overnight. The cells were treated with the desired compounds for 24 h. The culture medium was removed, and 100 μL of RIPA buffer (Beyotime, P0013B) containing 1% Protease Inhibitor Cocktail (Bimake, B14001), 1% Phosphatase Inhibitor Cocktail 2 (Sigma, P5726), and 1% Phosphatase Inhibitor Cocktail 3 (Sigma, P0044) were added to lyse the cells. Then, the cell lysates were transferred to 1.5 mL microcentrifuge tubes and centrifuged at 12,000 rpm and 4° C. for 30 min. The supernatants were transferred into new tubes, and the protein concentration was determined using the BCA protein quantification method. All samples were diluted to the same concentration using RIPA buffer, loading buffer was added, samples were denatured, and 15 μg of protein per lane was loaded onto a SurePAGE 4-20% Bis-Tris gel. Samples were separated via electrophoresis in MOPS running buffer at 180 V for 100 min. Then, proteins were transferred onto PVDF membranes using the MiniBlot™ Electrophoretic Transfer Cell Device (Beyotime, E6050). The membrane was blocked using block buffer (LI-COR 927-60001) to prevent non-specific binding. The membrane was incubated with primary antibodies (1:500 dilution, EGFR-CST4405, 1:2000 dilution, Tubulin-ABclonal #AC021) at 4° C. overnight. The membrane was washed three times with 1× TBST buffer for 15 min each. The membrane was incubated with secondary antibodies IRDye 680RD Goat anti-Rabbit IgG Secondary Antibody (1:2000 dilution, LI-COR 926-68071) and IRDye 800CW Goat anti-Mouse IgG Secondary Antibody (1:2000 dilution, LI-COR 926-32210). […] Fluorescence was detected using the Odyssey CLx Imaging System, and the data were analyzed with Empiria Studio Software and GraphPad Prism 9. […]

Test [2] deals with T4, BaF3_SVD (EGFR_D770insSVD) (Homo sapiens, UniProt P00533, INS770SVD).
T4 construct: expressed in transfected cells; host or cells: Ba/F3 (engineered)
Put plainly: EGFR degradation assay (western blot), BaF3_SVD cells. As to the method: as §1

T3 sequence (P04626 with tags, fused parts or gaps INS775YVMA): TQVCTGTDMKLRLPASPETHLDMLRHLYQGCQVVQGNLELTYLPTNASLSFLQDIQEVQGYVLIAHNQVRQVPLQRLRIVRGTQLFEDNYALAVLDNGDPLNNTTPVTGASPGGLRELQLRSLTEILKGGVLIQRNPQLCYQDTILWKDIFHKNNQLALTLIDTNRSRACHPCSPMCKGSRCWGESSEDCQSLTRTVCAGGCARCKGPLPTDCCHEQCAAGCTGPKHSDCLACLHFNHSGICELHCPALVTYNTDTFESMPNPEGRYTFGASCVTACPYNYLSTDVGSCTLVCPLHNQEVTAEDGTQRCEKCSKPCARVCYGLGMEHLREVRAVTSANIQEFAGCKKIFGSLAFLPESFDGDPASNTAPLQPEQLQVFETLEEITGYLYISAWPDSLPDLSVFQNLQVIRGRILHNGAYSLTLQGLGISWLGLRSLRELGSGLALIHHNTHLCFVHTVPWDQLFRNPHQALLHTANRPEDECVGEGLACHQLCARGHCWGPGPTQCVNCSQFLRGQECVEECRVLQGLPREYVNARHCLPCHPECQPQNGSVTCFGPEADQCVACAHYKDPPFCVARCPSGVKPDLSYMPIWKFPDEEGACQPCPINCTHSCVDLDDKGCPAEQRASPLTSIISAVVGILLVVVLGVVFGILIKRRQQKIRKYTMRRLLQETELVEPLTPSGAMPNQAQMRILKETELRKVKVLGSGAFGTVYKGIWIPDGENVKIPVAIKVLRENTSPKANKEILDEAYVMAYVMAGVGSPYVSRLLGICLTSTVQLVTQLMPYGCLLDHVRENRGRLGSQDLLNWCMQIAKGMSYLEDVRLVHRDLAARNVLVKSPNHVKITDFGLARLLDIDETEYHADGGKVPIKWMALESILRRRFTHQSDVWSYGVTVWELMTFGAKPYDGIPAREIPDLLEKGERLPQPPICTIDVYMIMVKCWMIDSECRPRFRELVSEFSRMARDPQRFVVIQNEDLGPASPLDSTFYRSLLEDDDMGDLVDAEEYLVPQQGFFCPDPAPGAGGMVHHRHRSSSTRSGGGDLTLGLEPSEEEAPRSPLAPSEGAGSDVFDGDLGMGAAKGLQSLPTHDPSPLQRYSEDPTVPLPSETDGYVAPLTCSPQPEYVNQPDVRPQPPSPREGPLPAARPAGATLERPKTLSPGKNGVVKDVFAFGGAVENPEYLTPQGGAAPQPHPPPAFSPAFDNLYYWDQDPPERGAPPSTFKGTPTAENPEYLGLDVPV
T4 sequence (P00533 with tags, fused parts or gaps INS770SVD): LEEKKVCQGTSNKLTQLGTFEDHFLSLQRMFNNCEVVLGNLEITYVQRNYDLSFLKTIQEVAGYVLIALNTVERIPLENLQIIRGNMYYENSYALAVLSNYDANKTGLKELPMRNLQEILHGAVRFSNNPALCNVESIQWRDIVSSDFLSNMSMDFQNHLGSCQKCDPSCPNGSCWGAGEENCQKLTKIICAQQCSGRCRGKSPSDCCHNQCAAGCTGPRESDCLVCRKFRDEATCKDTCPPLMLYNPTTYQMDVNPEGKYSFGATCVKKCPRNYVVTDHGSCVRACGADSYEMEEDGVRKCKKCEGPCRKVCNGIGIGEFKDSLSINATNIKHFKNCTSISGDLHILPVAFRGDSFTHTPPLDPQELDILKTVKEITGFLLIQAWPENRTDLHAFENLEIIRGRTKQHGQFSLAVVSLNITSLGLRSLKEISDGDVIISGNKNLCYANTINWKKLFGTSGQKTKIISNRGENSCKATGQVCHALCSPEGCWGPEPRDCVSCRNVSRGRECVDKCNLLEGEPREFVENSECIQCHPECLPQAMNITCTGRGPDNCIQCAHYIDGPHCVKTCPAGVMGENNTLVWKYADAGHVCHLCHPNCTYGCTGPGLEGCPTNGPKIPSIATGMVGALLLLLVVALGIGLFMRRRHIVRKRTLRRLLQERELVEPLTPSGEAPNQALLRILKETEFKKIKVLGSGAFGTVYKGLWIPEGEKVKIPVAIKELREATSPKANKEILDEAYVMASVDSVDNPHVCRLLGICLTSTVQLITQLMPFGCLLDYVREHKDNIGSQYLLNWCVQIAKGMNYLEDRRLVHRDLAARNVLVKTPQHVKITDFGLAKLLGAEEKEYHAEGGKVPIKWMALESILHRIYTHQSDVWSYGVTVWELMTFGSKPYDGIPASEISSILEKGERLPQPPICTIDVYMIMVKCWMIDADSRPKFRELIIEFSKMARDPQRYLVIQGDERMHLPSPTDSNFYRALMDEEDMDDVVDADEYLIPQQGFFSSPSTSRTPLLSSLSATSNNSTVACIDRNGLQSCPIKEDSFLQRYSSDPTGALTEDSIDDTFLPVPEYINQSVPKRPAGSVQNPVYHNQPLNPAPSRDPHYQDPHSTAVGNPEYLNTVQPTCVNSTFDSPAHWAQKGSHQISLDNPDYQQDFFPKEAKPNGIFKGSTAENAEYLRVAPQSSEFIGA
T1 sequence (P00533 25-1210): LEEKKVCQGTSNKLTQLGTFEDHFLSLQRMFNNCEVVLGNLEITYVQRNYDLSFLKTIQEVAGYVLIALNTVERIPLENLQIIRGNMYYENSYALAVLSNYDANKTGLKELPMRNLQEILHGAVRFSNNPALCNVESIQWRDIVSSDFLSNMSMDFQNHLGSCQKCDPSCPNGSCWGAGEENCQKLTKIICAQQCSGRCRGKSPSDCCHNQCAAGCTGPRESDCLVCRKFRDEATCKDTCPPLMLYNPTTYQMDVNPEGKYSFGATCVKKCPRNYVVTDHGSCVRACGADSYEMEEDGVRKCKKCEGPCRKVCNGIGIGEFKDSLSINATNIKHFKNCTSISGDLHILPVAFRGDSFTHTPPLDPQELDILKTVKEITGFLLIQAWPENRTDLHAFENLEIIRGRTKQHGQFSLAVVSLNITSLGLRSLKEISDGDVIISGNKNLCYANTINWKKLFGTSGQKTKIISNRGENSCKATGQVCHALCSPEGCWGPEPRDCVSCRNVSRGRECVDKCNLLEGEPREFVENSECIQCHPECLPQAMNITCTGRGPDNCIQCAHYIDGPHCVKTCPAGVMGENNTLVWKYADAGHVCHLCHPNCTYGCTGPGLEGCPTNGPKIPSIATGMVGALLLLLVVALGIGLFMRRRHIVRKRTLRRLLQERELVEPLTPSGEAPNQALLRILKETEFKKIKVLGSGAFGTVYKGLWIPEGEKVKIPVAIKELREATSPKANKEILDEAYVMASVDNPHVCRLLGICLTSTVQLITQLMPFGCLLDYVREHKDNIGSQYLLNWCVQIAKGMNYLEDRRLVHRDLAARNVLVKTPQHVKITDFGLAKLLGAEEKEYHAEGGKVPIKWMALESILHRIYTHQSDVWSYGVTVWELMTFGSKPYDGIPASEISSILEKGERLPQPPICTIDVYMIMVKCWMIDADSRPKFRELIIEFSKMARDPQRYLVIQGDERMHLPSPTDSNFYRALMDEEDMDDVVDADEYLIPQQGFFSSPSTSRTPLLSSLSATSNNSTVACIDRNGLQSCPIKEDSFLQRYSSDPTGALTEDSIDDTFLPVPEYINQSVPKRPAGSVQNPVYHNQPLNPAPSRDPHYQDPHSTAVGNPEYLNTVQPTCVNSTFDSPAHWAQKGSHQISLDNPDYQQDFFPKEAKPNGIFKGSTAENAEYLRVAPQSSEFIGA
T2 sequence (P00533 25-1210): as above

On to `CCc1cc(Nc2ncc(Br)c(Nc3ccc4nccnc4c3NS(C)(=O)=O)n2)c(OC)cc1N1CCC(N2CCN(CCc3cccc4c3n(CC)c(=O)n4C3CCC(=O)NC3=O)CC2)CC1` (stereo not shown) [Compound 11, N-(6-((5-bromo-2-((4-(4-(4-(2-(1-(2,6-dioxopiperidin-3-yl)-3-ethyl-2-oxo-2,3-dihydro-1H-benzo[d]imidazol-4-yl)ethyl)piperazin-1-yl)piperidin-1-yl)-5-ethyl-2-methoxyphenyl)amino)pyrimidin-4-yl)amino)quinoxalin-5-yl)methanesulfonamide], for which the DC50 on A431 (EGFR_WT) (Table 5, 24 h, read-out: DC50 (nM), 24 h, A431) was over 1000 nM; at A431 (EGFR_WT) (compounds 24 h, western blot, read-out: A431 DC50) it was over 1000 nM; at NCl-H2073 (EGFR_WT) it was over 1000 nM; in test [1] (Table 5, BaF3_YVMA cells (mutant Her2), 24 h), 33.3 nM; in test [2] (Table 5, BaF3_SVD cells, 24 h) it was 21.6 nM. In addition, in test [1] (BaF3_YVMA, comparison with Compound A, in words), the “Potency in degrading Her2 mutant form compared with Compound A (BaF3_YVMA)” value was “significantly increased potency”. The “Potency in degrading EGFR exon20 insertion mutant form compared with Compound A (BaF3_SVD)” value in test [2] (BaF3_SVD, comparison with Compound A, in words) is “significantly increased potency”.
